Test results from doi:10.1101/2023.09.25.559398v1 (biorxiv, 2023).

Key:
D4R (D4.4R) = target: T1, D4R (D4.4R) (Homo sapiens, UniProt P21917); experiment: radioligand competition binding, cell homogenates
T1 sequence (P21917 1-419): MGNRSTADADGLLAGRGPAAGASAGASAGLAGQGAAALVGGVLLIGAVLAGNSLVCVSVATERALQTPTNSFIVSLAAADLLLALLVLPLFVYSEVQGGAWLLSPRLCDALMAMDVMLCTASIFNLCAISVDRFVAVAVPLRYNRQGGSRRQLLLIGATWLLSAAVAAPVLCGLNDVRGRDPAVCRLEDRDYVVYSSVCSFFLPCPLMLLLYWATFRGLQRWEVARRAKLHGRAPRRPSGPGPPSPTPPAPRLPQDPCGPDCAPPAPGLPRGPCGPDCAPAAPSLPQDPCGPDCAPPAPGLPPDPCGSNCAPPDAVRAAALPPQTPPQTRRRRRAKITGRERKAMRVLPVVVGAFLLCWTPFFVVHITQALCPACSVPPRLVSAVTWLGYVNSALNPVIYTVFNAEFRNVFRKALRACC

D1R = D1R (Homo sapiens, UniProt P21728); experiment: radioligand competition binding, cell homogenates
D2longR [1] = target: T2, D2longR (Homo sapiens, UniProt P14416); experiment: radioligand competition binding, cell homogenates
D3R = D3R (Homo sapiens, UniProt P35462); experiment: radioligand competition binding, cell homogenates
D5R = D5R (Homo sapiens, UniProt P21918); experiment: radioligand competition binding, cell homogenates
D2longR [2] = target: T2, D2longR; experiment: Go1-CASE BRET heterotrimer dissociation assay, antagonist mode; format: cell-based
[3] = target: D2longR-mNeonGreen (hD2R-mNeonGreen) (Homo sapiens, UniProt P14416); experiment: molecular brightness, confocal microscopy of intact cells; format: cell-based
D4R = target: T3, D4R (Homo sapiens, UniProt P21917); experiment: Go1-CASE BRET heterotrimer dissociation assay, antagonist mode; format: cell-based
T3 sequence (P21917 1-419): T1 sequence (P21917 1-419)

T2 sequence (P14416 whole entry): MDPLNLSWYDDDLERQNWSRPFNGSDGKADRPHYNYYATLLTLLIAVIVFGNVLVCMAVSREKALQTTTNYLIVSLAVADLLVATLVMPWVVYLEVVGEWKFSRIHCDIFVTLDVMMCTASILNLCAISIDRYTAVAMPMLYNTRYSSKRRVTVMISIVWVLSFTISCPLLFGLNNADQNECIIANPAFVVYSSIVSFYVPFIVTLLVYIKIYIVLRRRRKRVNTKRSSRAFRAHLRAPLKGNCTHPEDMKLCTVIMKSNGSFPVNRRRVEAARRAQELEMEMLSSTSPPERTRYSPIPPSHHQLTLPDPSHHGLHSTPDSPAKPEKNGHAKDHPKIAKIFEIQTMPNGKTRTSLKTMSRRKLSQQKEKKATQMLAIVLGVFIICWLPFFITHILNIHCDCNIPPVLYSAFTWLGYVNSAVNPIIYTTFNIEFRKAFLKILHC
Sequence of D5R (P21918 whole entry): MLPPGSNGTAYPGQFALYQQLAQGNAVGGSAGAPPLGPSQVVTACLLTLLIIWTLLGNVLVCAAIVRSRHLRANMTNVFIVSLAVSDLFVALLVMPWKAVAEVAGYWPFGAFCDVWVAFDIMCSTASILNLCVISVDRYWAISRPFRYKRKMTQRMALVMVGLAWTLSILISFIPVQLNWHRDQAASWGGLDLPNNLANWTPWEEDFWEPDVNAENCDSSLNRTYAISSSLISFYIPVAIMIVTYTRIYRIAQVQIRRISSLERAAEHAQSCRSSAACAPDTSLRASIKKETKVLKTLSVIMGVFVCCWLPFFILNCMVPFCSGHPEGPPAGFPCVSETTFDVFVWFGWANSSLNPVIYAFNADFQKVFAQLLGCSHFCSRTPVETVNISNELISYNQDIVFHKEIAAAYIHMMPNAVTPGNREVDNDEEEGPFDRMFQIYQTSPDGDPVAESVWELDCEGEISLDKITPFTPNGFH
Sequence of D3R (P35462 whole entry): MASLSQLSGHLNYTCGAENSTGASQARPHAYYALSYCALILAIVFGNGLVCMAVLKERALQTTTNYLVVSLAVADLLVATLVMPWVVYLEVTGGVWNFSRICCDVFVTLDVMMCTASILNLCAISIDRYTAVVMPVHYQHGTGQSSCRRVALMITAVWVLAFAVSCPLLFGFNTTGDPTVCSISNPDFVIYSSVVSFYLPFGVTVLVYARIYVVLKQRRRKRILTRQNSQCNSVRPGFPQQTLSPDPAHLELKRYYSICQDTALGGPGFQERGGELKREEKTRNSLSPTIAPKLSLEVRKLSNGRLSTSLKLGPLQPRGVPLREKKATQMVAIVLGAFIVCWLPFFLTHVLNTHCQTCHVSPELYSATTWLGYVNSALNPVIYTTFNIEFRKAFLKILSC
Sequence of D1R (P21728 whole entry): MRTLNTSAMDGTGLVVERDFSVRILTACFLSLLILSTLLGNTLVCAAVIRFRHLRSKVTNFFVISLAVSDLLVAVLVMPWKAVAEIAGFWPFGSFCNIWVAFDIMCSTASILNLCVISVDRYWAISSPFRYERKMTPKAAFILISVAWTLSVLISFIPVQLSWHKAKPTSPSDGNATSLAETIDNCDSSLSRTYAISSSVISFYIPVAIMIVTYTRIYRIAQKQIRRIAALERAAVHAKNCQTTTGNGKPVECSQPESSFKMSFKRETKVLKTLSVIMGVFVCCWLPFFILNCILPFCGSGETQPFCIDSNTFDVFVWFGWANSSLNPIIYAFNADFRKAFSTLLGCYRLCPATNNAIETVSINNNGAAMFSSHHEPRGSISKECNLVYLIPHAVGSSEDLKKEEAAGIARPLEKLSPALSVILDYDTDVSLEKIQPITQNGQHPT
Sequence of D2longR-mNeonGreen (hD2R-mNeonGreen) (P14416 whole entry): as the sequence (P14416 whole entry) above

## CN(C)c1ccc2c(-c3ccc(C(=O)NCCCOCCOCCOCCCNC(=O)CCC(=O)Nc4ccc(CCN5CN(c6ccccc6)C6(CCN(CCCC(=O)c7ccc(F)cc7)CC6)C5=O)cc4)cc3C(=O)[O-])c3ccc(=[N+](C)C)cc-3oc2c1 [compound 17, 2-(6-(Dimethylamino)-3-(dimethyliminio)-3H-xanthen-9-yl)-5-((18-((4-(2-(8-(4-(4-fluorophenyl)-4-oxobutyl)-4-oxo-1-phenyl-1,3,8-triazaspiro[4.5]decan-3-yl)ethyl)phenyl)amino)-15,18-dioxo-4,7,10-trioxa-14-azaoctadecyl)carbamoyl)benzoate dihydrotrifluoroacetate]
D4R (D4.4R)
  Ki: 29.5 nM
D1R
  Ki: 331 nM
D2longR [1]
  Ki: 5.62 nM
D3R
  Ki: 5.13 nM
D5R
  Ki: > 3160 nM

## CN(C)c1ccc2c(-c3ccc(C(=O)NCCCC(=O)Nc4ccc(CCN5CN(c6ccccc6)C6(CCN(CCCC(=O)c7ccc(F)cc7)CC6)C5=O)cc4)cc3C(=O)[O-])c3ccc(=[N+](C)C)cc-3oc2c1 [compound 20, 2-(6-(Dimethylamino)-3-(dimethyliminio)-3H-xanthen-9-yl)-5-((4-((4-(2-(8-(4-(4-fluorophenyl)-4-oxobutyl)-4-oxo-1-phenyl-1,3,8-triazaspiro[4.5]decan-3-yl)ethyl)phenyl)amino)-4-oxobutyl)carbamoyl)benzoate dihydrotrifluoracetate]
D4R (D4.4R)
  Ki: 16.6 nM
D1R
  Ki: 67.6 nM
D2longR [2]
  Kb: 0.0295 nM
D2longR [1]
  Ki: 5.75 nM
[3]
  Kd: 7.59 nM
D3R
  Ki: 2.63 nM
D5R
  Ki: 331 nM
D4R
  Kb: 1.66 nM

## COCC[N+]1=C(C=CC=C2N(CCCCCC(=O)NCCCOCCOCCOCCCNC(=O)CCC(=O)Nc3ccc(CCN4CN(c5ccccc5)C5(CCN(CCCC(=O)c6ccc(F)cc6)CC5)C4=O)cc3)c3ccc(S(=O)(=O)[O-])cc3C2(C)CCCS(=O)(=O)O)C(C)(CCCS(=O)(=O)O)c2cc(S(=O)(=O)O)ccc21 (centres unmarked) [compound 16]
D2longR [1]; displacement of […] [3H]N-methylspiperone, room temperature, […] min, N = […]
  pKi: 6.67 ± 0.07
